We go through two molecules from patent US11608380B2, “Anti-EGFRvIII antibodies and uses thereof” (REGENERON PHARMACEUTICALS, INC., priority 2014, dated 2023).

In one test the test system is U251/hEGFRvIII. Briefly: Cell viability (CCK8) cell kill assay. It counts as cell-based, human. Particulars: Table 18B. The protocol: (§1) All cells were generated via lipofectamine 2000 based methodologies and were cultured in complete growth media in the presence of G418.
(§2) Next, the ability of anti-human EGFRvIII antibodies conjugated to the maytansine toxin DM1 to reduce cell viability was determined using in vitro cell based assays. Cells were seeded in PDL-coated 96 well plates at 250-2000 cells per well in complete growth media and allowed to grow overnight. For cell viability curves, ADCs or free drug (DM1-SMe) was added to cells at final concentrations ranging from 500 nM to 5 μM and incubated for 3 days. […] Background OD450 levels from digitonin (40 nM) treated cells was subtracted from all wells and viability is expressed as a percentage of the untreated controls. IC50 values were determined from a four-parameter logistic equation over a 10-point response curve (Graph Pad Prism). IC50 values are in nM and are normalized for the particular drug/antibody ratio (DAR).

The test system of the next test is HEK293/hEGFRvIII. Put plainly: Cell viability (CCK8) cell kill assay. In kind it is cell-based, human. The protocol:
as §1, §2

The next test deals with MMT/hEGFRvIII. Briefly: Cell viability (CCK8) cell kill assay. In kind it is cell-based, human. Here is the method: as §1, §2
Another test has as its system HEK293/hEGFRwt. Put plainly: Cell viability (CCK8) cell kill assay. In kind it is cell-based, human. Particulars: Table 18A. The protocol: as §1, §2
The test system of another test is U251. Put plainly: Cell viability (CCK8) cell kill assay. Particulars: Table 18A. It counts as cell-based. The protocol: (§3) Next, the ability of anti-human EGFRvIII antibodies conjugated to the maytansine toxin DM1 to reduce cell viability was determined using in vitro cell based assays. Cells were seeded in PDL-coated 96 well plates at 250-2000 cells per well in complete growth media and allowed to grow overnight. For cell viability curves, ADCs or free drug (DM1-SMe) was added to cells at final concentrations ranging from 500 nM to 5 μM and incubated for 3 days. Cells were incubated with CCK8 (Dojindo) for the final 1-3 h and the absorbance at 450 nm (OD450) was determined on the Flexstation3 (Molecular Devices). Background OD450 levels from digitonin (40 nM) treated cells was subtracted from all wells and viability is expressed as a percentage of the untreated controls. IC50 values were determined from a four-parameter logistic equation over a 10-point response curve (Graph Pad Prism). IC50 values are in nM and are normalized for the particular drug/antibody ratio (DAR).

A further test has as its system HEK293. Briefly: Cell viability (CCK8) cell kill assay. In kind it is cell-based. The protocol:
as §3

A further test concerns MMT. Put plainly: Cell viability (CCK8) cell kill assay. It counts as cell-based. The protocol:
as §3

For another test, the target named is EGFR-mFc (Homo sapiens, UniProt P00533). Put plainly: SPR (BIACORE) binding kinetics, receptor-capture format. Particulars: 37° C., EGFR-mFc captured, NB=no binding. The protocol:
(§4) Measurements were conducted on a T100 BIACORE™ instrument. […] In the receptor-capture format, either EGFRvIII-mFc or EGFR-mFc, was captured on the BIACORE™ chip and the respective antibodies flowed over. Kinetic association (ka) and dissociation (kd) rate constants were determined by processing and fitting the data to a 1:1 binding model using Scrubber 2.0 curve fitting software. Binding dissociation equilibrium constants (KD) and dissociative half-lives (t1/2) were calculated from the kinetic rate constants as: KD (M)=kd/ka; and t1/2 (min)=ln 2/(60*kd).
On the technique in general: SPR reads the build-up and loss of mass on a sensor chip optically.

Another test concerns HEK293 cells. Put plainly: FACS cell binding selectivity. In kind it is cell-based. Particulars: directly labeled (ALEXA FLUOR 488) antibodies, 10 μg/ml. The protocol: To determine the specificity of the anti-EGFRvIII mAbs, their binding to HEK293, HEK293 cells expressing EGFRvIII (HEK293/EGFRvIII) and A431 cells, was analyzed by fluorescence activated cell sorting (FACS). HEK293/EGFRvIII cells were prepared by transfecting HEK293 cells with neomycin resistant DNA vectors constitutively expressing full-length hEGFRvIII (SEQ ID NO:147) using LIPOFECTAMINE™ 2000 transfection reagent (INVITROGEN™). At two days post-transfection, cells were placed under G418 selection for approximately two weeks. Populations positively expressing EGFRvIII were isolated via fluorescence activated cell sorting (FACS). The HEK293 cells expressing ˜3×10^6 copies of EGFRvIII per cell were used in the experiment. Briefly, the anti-EGFRvIII antibodies at 10 μg/ml were incubated with cells for 30 minutes at room temperature, washed, incubated with secondary antibody, i.e., phycoerythrin (PE)-labeled goat F(ab′)2 against human IgG (cat #109-116-170, Jackson ImmunoResearch Laboratories), followed by a final wash before FACS analysis. In another set of experiment, anti-EGFRvIII antibodies were directly conjugated via their lysine residues with the fluorescent dye, ALEXA FLUOR® 488 Dye (INVITROGEN™), thereby eliminating the step using the secondary antibody. […] Controls I, II, III, IV and V are described above. MFI: Mean Fluorescence Intensity.

In test [1] the target is junctional peptide (J-peptide) (Homo sapiens, UniProt P00533, DELINS30-297G). Briefly: Antibody specificity by ELISA. Particulars: ELISA binding. The protocol:
(§5) To further characterize anti-hEGFRvIII mAbs, their binding specificity was examined by ELISA. […] For the junctional peptides that were linked to biotin either at C-terminal (SEQ ID NO:149) or N-terminal (SEQ ID NO:150) via a linker, plates were pre-coated with avidin. Also, coated was an irrelevant peptide (control peptide) with or without biotin at its N-terminal. Anti-EGFRvIII antibodies as well as an isotype control antibody were added to coated plates and allowed to incubate for 1 hour at 25° C. The plates were then washed and bound anti-EGFRvIII mAbs were detected with anti-human Fc antibodies conjugated with horse-radish peroxidase (HRP). […] Data analysis used a sigmoidal dose-response model within PRISM™ software.
On the technique in general: In an ELISA, binding on a coated surface is turned into a signal by an enzyme label.

A further test has as its target EGFRvIII-mmh (Homo sapiens, UniProt P00533, DELINS30-297G). Briefly: Antibody specificity by ELISA. Particulars: ELISA binding, plate coated with EGFRvIII-mmh. Here is the method:
as §5

The target in the next test is C-term biotin J-peptide (Homo sapiens, UniProt P00533, DELINS30-297G). Briefly: Antibody specificity by ELISA. The note with it: ELISA binding, avidin pre-coated plates. Here is the method:
as §5

Another test has as its target N-term biotin J-peptide (Homo sapiens, UniProt P00533, DELINS30-297G). Briefly: Antibody specificity by ELISA. The note with it: ELISA binding, avidin pre-coated plates. The protocol:
as §5

The target of the next test is EGFR-mmh (Homo sapiens, UniProt P00533). Briefly: Antibody specificity by ELISA. The note with it: read-out: EC50 EGFR-mmh (25° C.), ELISA binding, plate coated with EGFR-mmh. Here is the method: as §5
The next test relates to EGFRvIII-mFc. In kind it is binding, human. Here is the method: as §4
Test [2] relates to N-term Biotin control peptide. Put plainly: Antibody specificity by ELISA. Particulars: ELISA binding, irrelevant peptide with N-terminal biotin. The protocol: (§6) To further characterize anti-hEGFRvIII mAbs, their binding specificity was examined by ELISA. […] For the junctional peptides that were linked to biotin either at C-terminal (SEQ ID NO:149) or N-terminal (SEQ ID NO:150) via a linker, plates were pre-coated with avidin. Also, coated was an irrelevant peptide (control peptide) with or without biotin at its N-terminal. Anti-EGFRvIII antibodies as well as an isotype control antibody were added to coated plates and allowed to incubate for 1 hour at 25° C. The plates were then washed and bound anti-EGFRvIII mAbs were detected with anti-human Fc antibodies conjugated with horse-radish peroxidase (HRP). Plates were developed with a tetra-methyl-benzidine (TMB) substrate solution to produce a colorimetric reaction and neutralized with sulfuric acid before reading absorbance at 450 nm on a VICTOR™ X5 plate reader. Data analysis used a sigmoidal dose-response model within PRISM™ software. […] NT: Not tested. Controls I-III: As described above.

Another test concerns Control peptide. Briefly: Antibody specificity by ELISA. The note with it: ELISA binding, irrelevant peptide. Here is the method: as §6
Where [3] appears, read: Table 19, HEK293/hEGFRvIII (high).
The mark [4] stands for this setting: Table 20, HEK293/hEGFRvIII, single ADC or 1:1 pairwise combination.
Setting [5] is: Table 20, MMT/hEGFRvIII, single ADC or 1:1 pairwise combination.
Where [6] appears, read: Table 20, HEK293, single ADC or 1:1 pairwise combination.
Where [7] appears, read: Table 20, MMT, single ADC or 1:1 pairwise combination.
The mark [8] stands for this setting: 37° C., receptor-capture, EGFRvIII-mFc captured.

DM1-SMe: the “% Kill” value is given as 83% in the test with U251/hEGFRvIII; 99% with HEK293/hEGFRvIII (Table 18A, HEK293/hEGFRvIII); 99% in the test with HEK293/hEGFRvIII (setting [3]); 97% with HEK293/hEGFRvIII (setting [4]); 100% in the test with MMT/hEGFRvIII (Table 18B, MMT/hEGFRvIII); 99% with MMT/hEGFRvIII (Table 19, MMT/hEGFRvIII (high)). Further, the “% Kill” value in the test on MMT/hEGFRvIII (setting [5]) came to 100%; in the test on HEK293/hEGFRwt it was 95%; in the test with U251 (U251), 81%; with HEK293 (Table 18A, HEK293), 97%; in the test on HEK293 (Table 19, HEK293), 98%; in the test with HEK293 (setting [6]), 96%. For the same molecule, the “% Kill” value turned out to be 96% in the test on MMT (Table 18B, MMT); 100% with MMT (Table 19, MMT); 100% in the test with MMT (setting [7]). The IC50 worked out at 1.2 nM with U251/hEGFRvIII (3 days, normalized for DAR); 0.6 nM with HEK293/hEGFRvIII (Table 18A, HEK293/hEGFRvIII, 3 days, normalized for DAR); 0.25 nM in the test on HEK293/hEGFRvIII (setting [3]); 0.28 nM in the test with HEK293/hEGFRvIII (setting [4]); 0.7 nM in the test with MMT/hEGFRvIII (Table 18B, MMT/hEGFRvIII, 3 days, normalized for DAR); 0.18 nM in the test on MMT/hEGFRvIII (Table 19, MMT/hEGFRvIII (high)). Moreover, the IC50 came to 0.19 nM in the test with MMT/hEGFRvIII (setting [5]); 0.57 nM in the test on HEK293/hEGFRwt (3 days, normalized for DAR); 1.8 nM in the test on U251 (U251, 3 days, normalized for DAR); 0.31 nM with HEK293 (Table 18A, HEK293, 3 days, normalized for DAR); 0.19 nM in the test on HEK293 (Table 19, HEK293); 0.21 nM in the test with HEK293 (setting [6]). For the same molecule, the IC50 with MMT (Table 18B, MMT, 3 days, normalized for DAR) turned out to be 0.6 nM; in the test on MMT (Table 19, MMT), 0.15 nM; in the test on MMT (setting [7]), 0.19 nM.

B1: H1H1915N: human IgG1 Fc anti-EGFRvIII antibody with variable domains 1915; HCVR/LCVR SEQ ID NOs 82/90 (antibody, V domains shown)
VH: QVQLVESGGGVVQPGRSLRLSCAASGFTFSAYAMHWVRQAPGKGLEWVAVIWYDGSNKNYADSVKGRFTVSRDNSKNTLYLEMNSLRAEDTAVYYCARDLMVGVTNYWGQGTLVTVST
VL: DVVMTQSPLSLPVALGQPASISCRSSQSLVYTDGNTYLNWFHQRPGQSPRRLIYKVSNRDSGVPDRFTGSGSGTDFTLKISRVEAEDVGVFYCMQGSHWPPYTFGQGTKLEIK
modifications: human IgG1 Fc
In the case of B1, the ka was found to be 43500 M⁻¹ s⁻¹ with EGFR-mFc and 100000 M⁻¹ s⁻¹ in the test on EGFRvIII-mFc (setting [8]). The kd worked out at 0.00801 s⁻¹ with EGFR-mFc and 0.000328 s⁻¹ on EGFRvIII-mFc (setting [8]). Besides, the “Parental HEK293 MFI” value in the test on HEK293 cells is 3461. The EC50 (in test [1]; with C-term biotin J-peptide; with N-term biotin J-peptide; with EGFR-mmh; in test [2]; in the test with Control peptide) was over 10 nM each time. Moreover, in the test with EGFRvIII-mmh, the “EC50 EGFRvIII-mmh (25° C.)” value is reported as “strong binding”. In addition, in the test with EGFRvIII-mFc (receptor capture format (Table 4)), the “selectivity for EGFRvIII over wild-type EGFR” value is “greatest selectivity”.

The IC50 is the concentration that inhibits the measured activity by half. One may read the EC50 as the concentration that produces a half-maximal response.
